SMILES strings stand for the structures.

One test addresses T1, hCA II (Homo sapiens, UniProt P00918).
T1 construct: made in house
On the set-up: method as in PMID 26121309. To be noted: values measured previously; cited from earlier work.

Test [1] deals with T2, hCA XII (Homo sapiens, UniProt O43570).
T2 construct: made in house
On the set-up: method as in PMID 26121309. Particulars: values measured previously; cited from earlier work.

Test [2] relates to chronic myeloid leukemia cells. More on the design: method as in PMID 26121309. Particulars: cited from earlier work.
Test [3] deals with T2, hCA XII. Description: stopped-flow CO2 hydrase assay, hCA XII. In kind it is biochemical. Particulars: ratio of Ki values.
The target of test [4] is T3, hCA IX (Homo sapiens, UniProt Q16790).
T3 construct: made in house
In words: stopped-flow CO2 hydrase assay, hCA IX. In kind it is biochemical. Particulars: ratio of Ki values.

The target of a further test is T4, hCA VA (Homo sapiens, UniProt P35218).
T4 construct: made in house
More on the design: method as in PMID 26121309. To be noted: values measured previously; cited from earlier work.

In another test the target is T5, hCA VII (Homo sapiens, UniProt P43166).
T5 construct: made in house
On the set-up: method as in PMID 26121309. Particulars: values measured previously; cited from earlier work.

The next test deals with T6, hCA I (Homo sapiens, UniProt P00915).
T6 construct: made in house
On the set-up: method as in PMID 26121309. To be noted: values measured previously; cited from earlier work.

The target of another test is T7, hCA IV (Homo sapiens, UniProt P22748).
T7 construct: made in house
More on the design: method as in PMID 26121309. Particulars: values measured previously; cited from earlier work.

In test [5] the target is T3, hCA IX. On the set-up: method as in PMID 26121309. To be noted: values measured previously; cited from earlier work.

T2 sequence (O43570 25-354): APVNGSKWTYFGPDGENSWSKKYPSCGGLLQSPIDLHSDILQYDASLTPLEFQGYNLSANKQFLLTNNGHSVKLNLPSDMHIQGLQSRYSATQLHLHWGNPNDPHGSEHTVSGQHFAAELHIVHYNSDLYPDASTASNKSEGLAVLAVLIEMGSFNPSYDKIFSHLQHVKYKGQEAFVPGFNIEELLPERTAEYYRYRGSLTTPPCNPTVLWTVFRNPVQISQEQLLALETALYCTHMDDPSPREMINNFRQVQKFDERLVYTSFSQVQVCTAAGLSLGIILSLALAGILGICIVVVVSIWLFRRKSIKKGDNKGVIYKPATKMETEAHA
T6 sequence (P00915 whole entry): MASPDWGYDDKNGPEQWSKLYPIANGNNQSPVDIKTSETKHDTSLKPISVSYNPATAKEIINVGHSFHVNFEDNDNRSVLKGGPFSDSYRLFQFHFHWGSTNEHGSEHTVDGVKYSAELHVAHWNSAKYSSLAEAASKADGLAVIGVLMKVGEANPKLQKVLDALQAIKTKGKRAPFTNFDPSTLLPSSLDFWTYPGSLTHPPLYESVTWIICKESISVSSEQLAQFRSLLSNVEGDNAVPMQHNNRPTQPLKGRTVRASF
T5 sequence (P43166 whole entry): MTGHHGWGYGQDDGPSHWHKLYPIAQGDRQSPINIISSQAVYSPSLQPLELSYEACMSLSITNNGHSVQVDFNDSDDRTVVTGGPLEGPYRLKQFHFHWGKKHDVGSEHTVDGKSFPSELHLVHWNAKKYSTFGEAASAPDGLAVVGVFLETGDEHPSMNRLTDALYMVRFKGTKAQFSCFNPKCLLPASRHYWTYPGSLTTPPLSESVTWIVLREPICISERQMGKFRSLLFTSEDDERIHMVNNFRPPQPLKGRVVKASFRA
T4 sequence (P35218 39-305): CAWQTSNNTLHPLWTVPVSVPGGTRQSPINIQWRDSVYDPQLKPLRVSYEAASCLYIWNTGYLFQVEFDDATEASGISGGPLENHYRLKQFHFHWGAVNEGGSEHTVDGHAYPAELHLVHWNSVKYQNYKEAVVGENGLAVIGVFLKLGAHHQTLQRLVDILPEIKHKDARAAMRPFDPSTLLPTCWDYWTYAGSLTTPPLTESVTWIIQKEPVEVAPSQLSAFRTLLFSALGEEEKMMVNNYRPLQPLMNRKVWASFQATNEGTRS
T7 sequence (P22748 19-312): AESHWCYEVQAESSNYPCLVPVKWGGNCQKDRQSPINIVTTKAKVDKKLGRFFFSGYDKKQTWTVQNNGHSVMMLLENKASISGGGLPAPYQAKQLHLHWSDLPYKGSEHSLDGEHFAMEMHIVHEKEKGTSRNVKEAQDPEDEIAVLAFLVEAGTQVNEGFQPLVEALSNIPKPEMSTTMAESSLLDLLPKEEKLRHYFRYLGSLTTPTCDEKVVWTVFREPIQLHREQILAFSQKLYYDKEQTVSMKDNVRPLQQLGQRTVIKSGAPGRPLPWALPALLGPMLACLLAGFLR

As to `O=C(O)c1cc([N+](=O)[O-])c(NCCc2ccccc2)c([N+](=O)[O-])c1` [GV2-20], the Ki – broadly, a dissociation constant, usually derived from enzyme kinetics or from competition with a known ligand – was 67.3 nM on hCA II; 9.6 nM at hCA XII [1]; 895 nM on hCA VA; 8.7 nM on hCA VII; 352 nM on hCA I; 7660 nM on hCA IV. On hCA IX [5], the Ki is 42.3 nM. For the same compound, in test [2], the antiproliferative effects entry is recorded as “antiproliferative effects”. The “Selectivity Index hCA II/hCA XII” value at hCA XII [3] was 7.01. Besides, at hCA IX [4], the “Selectivity Index hCA II/hCA IX” value came to 1.59.

The record behind these values is PMC5943959, “Potent and Selective Carboxylic Acid Inhibitors of Tumor-Associated Carbonic Anhydrases IX and XII” (Molecules : A Journal of Synthetic Chemistry and Natural …, 2017).
